Structure (SMILES) | melting point
O=C1N(Cc2ncccc2C(F)(F)F)c2ccccc2C12COc1ccc3c(c12)OCCO3 (stereo not drawn) | 245 to 247 °C
CC(=O)OC1CSC(Oc2cncc(-c3ccc(C(F)(F)F)cc3)c2)C(OC(C)=O)C1OC(C)=O (stereo not drawn) | 163 to 164 °C
COc1ccc(C2(C3CCCC3=O)CCC(C(=O)O)CC2)c2c1OCCO2 (stereo not drawn) | 200 to 201 °C
OCc1cc(Br)cnc1Cl | 86.7 to 87.5 °C
CCCOC(C)c1ccc(-c2ccc(OCc3ccccc3)cc2)cc1 (single isomer, unassigned; (+)) | 106 to 108 °C
CNC(=O)[C@@H](NC(=O)[C@@H](CC(=O)OCc1ccccc1)n1ccc(-c2ccc(C#N)cc2)c1)C(C)(C)C | 102 to 104 °C
Cn1c(CC(=O)O)c(-c2ccccc2)c2cc(Cl)ccc21 | 141 to 142 °C
Cc1cccc(NC(=O)c2ccc(C(=O)N3Cc4cccn4Cc4ccccc43)cc2)c1C | 239 to 240 °C
CCOC(=O)C1CCCC1NC(=O)C=C(C)OC (stereo not drawn) | 74 °C
COC(=O)C(Sc1ccc(Cl)cc1)c1ccc(I)cc1 (stereo not drawn) | 44 to 46 °C
CCCCCCCCCCCc1cccc(Oc2c(N)nc(N)nc2CC)c1 | 97 to 99 °C
N#CC=C1CCc2cnc3c(c21)CCO3 | 153 to 155 °C
CCCc1c(OCCC2Cc3cc(CC(=O)OC)ccc3O2)ccc(C(C)=O)c1O (stereo not drawn) | 59 to 60 °C
CN1Cc2c(C#C[Si](C)(C)C)ncn2-c2ccc(F)cc2C1=O | 184 to 185 °C
CC(C)c1ccc(/C=C/C(=O)/C=C/c2ccccc2)cc1 | 76 to 78 °C
CCC(C)(C)O[C@H]1COC[C@H](NC(=O)c2nccc(OC)c2O)C(=O)O[C@@H](C)[C@@H]1OCC(C)C | 138 to 140 °C
CC(C)(C)C(=O)SCCNC(=O)CCNC(=O)OCc1ccccc1 | 87 to 88 °C
CCC1(CC)C(=O)N(c2ccccc2)CC(C)(C)N1OC(C)c1ccccc1 (stereo not drawn) | 78 to 81 °C
CC(C)(C)c1cc(-c2csc(SCC(=O)O)n2)cc(C(C)(C)C)c1O | 158 to 159 °C
CCCCCCCCc1ccc(OCC(=O)Cn2ccc3ccccc32)cc1 | 65 °C
CCCn1nc2c(N)nc3ccccc3c2c1CCc1ccccc1 | 175 to 176 °C
CN1CCC2(C)c3cc(OC(=O)OC(C)(C)C)cc(Br)c3N(C)C12 (stereo not drawn) | 146 to 148 °C
O=C(Nc1cc(S(=O)(=O)NC(CO)CO)sc1Cl)c1cnn2c(C(F)(F)F)cc(-c3ccc(C(F)(F)F)cc3)nc12 | 225 °C
COc1ccc2c3c(n(C)c2c1)SCCC3=O | 204 to 206 °C
O=C(CN1CCN(C(c2ccc(F)cc2)c2ccc(F)cc2)CC1)Nc1cccc2ccccc12 | 173 °C

Structure (SMILES) | melting point
CCCCCCCCCCCCCCCCCCN(C)c1ccc(N)cc1C(=O)O | 81 to 83 °C
CC(C)(C)OC(=O)c1cc(OCc2ccccc2)c(C(=O)c2c(OCc3ccccc3)cccc2C(=O)O)c(OCc2ccccc2)c1 | 151 to 156 °C
Cc1c(F)cc(C(=O)NCC2CC2)cc1-c1ccc(C(=O)NCC(C)(C)C)cc1C(=O)Nc1nccs1 | 179 to 183 °C
O=c1[nH]c2ccc3ccc(-n4cccc4CN4CCN(Cc5ccccc5)CC4)cc3c2[nH]c1=O | > 250 °C
COc1ccc(-c2ccc(C(=O)O)cn2)cc1 | 252 to 253 °C
CNC(=O)Nc1ccc(Cl)c(Cl)c1 | 156 °C
COc1ccc(C(OC(C)=O)c2cc(OCc3ccccc3)ccc2OC)nc1 (stereo not drawn) | 105 to 110 °C
COc1cccc(-c2nc(NC(=O)Nc3ccccn3)cs2)c1 | 201 to 203 °C
CCc1ccc([N+](=O)[O-])cc1COC | 21.5 to 23.5 °C
Cc1cccnc1C(=O)c1[nH]c2cc(Cl)ccc2c1CC(=O)O | 195 to 196 °C
CNCCCNC(=O)c1[nH]c(-c2ccccc2)c2cc(Cl)ccc12 | 162 to 164 °C
CC(C)(C)OC(=O)NCCNC(=O)c1ncccc1Oc1ccccc1Cl | 86 to 87 °C
CCCN(CCC)CC(=O)OC1CC2(C)C(C(=O)CO)CCC2C2CCC3CC(O)CCC3(C)C12 (stereo not drawn) | 98 to 102 °C
O=C(NCCO)/C(=C/c1ccc(OCC(F)F)cc1)NC(=O)c1ccc(OCCCC2CC2)cc1 | 149 to 151 °C
O=Cc1ccc(-c2cccc(-c3ccnc4c(C(=O)c5cccs5)cnn34)c2)cc1 | 156 to 158 °C
CCN(CC#N)S(=O)(=O)Cc1cccc(C(F)(F)F)c1 | 67 to 68.5 °C
Nc1cc([N+](=O)[O-])ccc1Nc1cccc(-c2nccs2)c1 | 146 to 159 °C
CCOC(=O)C1CCN(c2nnc(NCc3ccc4c(c3)OCO4)c3cnccc23)CC1 | 119 to 120 °C
C#CCOc1cc(-n2nc(CCC=C)[nH]c2=O)c(Cl)cc1Cl | 150 to 151 °C
CS(=O)CC(=O)c1cccn1Cc1ccccc1 (stereo not drawn) | 95 to 97 °C
c1ccc2c3ccocc-3nc2c1 | 109 to 111 °C
COc1ccc(-n2cnc(SC)n2)cc1 | 54.9 °C
COC1NC(=O)C(OC)(OC)C1Cl (stereo not drawn) | 141 to 142 °C
COC1=C(C)C(=O)OC1O (stereo not drawn) | 79 °C
CC(N)c1ccc(NS(C)(=O)=O)c(Sc2ccc(F)cc2F)c1 (stereo not drawn) | 165 to 166 °C

Structure (SMILES) | melting point
NC(=O)C=Cc1cccs1 | 153 °C
FC1(c2cn(-c3ccc(Br)cc3)nn2)CN2CCC1CC2 (stereo not drawn) | 127 °C
CC(=O)Oc1c(C)c(C)c2c(nc(COc3ccc(CC4SC(=O)NC4=O)cc3)n2C)c1C (stereo not drawn) | 250 to 253 °C
CCC(=O)OC(C)c1ccc(-c2ccc(C(=O)O)cc2)cc1 (single isomer, unassigned; (+)) | 175 to 176 °C
CN(C)C1CCN(c2nc(N3CCOCC3)c3ncnc(N(CCCN)Cc4ccccc4)c3n2)CC1 | 102 to 105 °C
CCCc1nn(C)c2c(Oc3ccc(F)cc3)nc(-c3ccccc3)nc12 | 126 to 128 °C
CC(=O)OC1CCC2(C)C(CCC3C4CCC(C(C)=O)C4(C)CC(O)C32Cl)C1 (stereo not drawn) | 175 to 179 °C
CCOC(=O)/C(=N\OC12CC3CC(CC(C3)C1)C2)c1csc(N)n1 | 152 to 153 °C
CCOC(=O)CN1CCN(c2cc3c(cc2Cl)c(=O)c(C(=O)O)cn3CC)CC1 | 230 to 232 °C
Nc1cccc(-c2ccc(CC3CCCCN3Cc3ccccc3)cc2)n1 (stereo not drawn) | 70 to 85 °C
N#Cc1ccc(NC(=O)c2cccc(OCc3ccc(OC(F)(F)F)cc3)c2)cc1 | 138 to 139 °C
CCCc1c(OCCCCCOc2c(C(C)=O)ccc(OCCCC(=O)O)c2CCC)ccc(C(C)=O)c1O | 61 to 66 °C
Cn1cc(CO)c(=O)c2cccc(F)c21 | 206 to 210 °C
Fc1cccc2onc(Nc3ccncc3)c12 | 160 to 161 °C
NC(=NO)c1cc2cc(F)c(F)cc2o1 | 184 °C
Cc1ccc(S(=O)(=O)NC2N=C(c3ccccc3F)c3ccccc3NC2=O)cc1 (racemic) | 215 to 216 °C
C[C@]1(CN2CCN(S(=O)(=O)CCCc3ccc(Cl)cc3)CC2)Cn2cc([N+](=O)[O-])nc2O1 | 150 to 151 °C
CN(C)CC1CCc2cc(OCc3ccc([N+](=O)[O-])cc3)ccc2C1 (stereo not drawn) | 83 to 89 °C
Cc1ccc2cccc(OCc3c(Cl)ccc(S(=O)(=O)NCc4ccccc4)c3Cl)c2n1 | 140 to 142 °C
CCOC(=O)C1=C(COCCNC2=NCCS2)NC(C)=C(C(=O)OC)C1c1ccccc1Cl (stereo not drawn) | 145 to 147 °C
CCN(CC)CCNC(=O)N1CCCC(S(=O)(=O)c2ccc(Cl)cc2)C1 (stereo not drawn) | 141 to 142 °C
O=C(c1ccn(S(=O)(=O)c2ccccc2)c1)c1ccc(Cl)cc1Cl | 122 °C
CON(c1ccc([N+](=O)[O-])cc1C#N)S(=O)(=O)c1ccc(Cl)s1 | 144 to 146 °C
CC(C)c1cc(-c2ccc(F)cc2)n(-c2ncccn2)n1 | 102 to 103 °C
COC(=O)CCc1cc2cc(Cl)ccc2n1S(=O)(=O)c1ccc(Cl)cc1 | 89 to 92 °C

Structure (SMILES) | melting point
CCOC(CC(=O)Nc1cc(CCNC(=O)C(F)(F)F)ccc1OC)OCC | 79 to 80 °C
CC(C)(C)OC(=O)N1CCO[C@@H](c2ccc(C(N)=O)cc2)C1 | 179 °C
CON=C(C(=O)O)c1nsc(NC(=O)OCc2ccccc2)n1 | 138 to 142 °C
COC(=O)c1cc(C)cc(C(C)(C)C#N)c1 | 53.8 to 55.9 °C
CCCN1CCC(c2ccc(C(=O)NC3(C(=O)NCC#N)CCCCC3)cc2)CC1 | 198 to 200 °C
COc1ccc(C2OC(O[Si](C)(C)C)(C(F)(F)F)C(C)(C)N2C(=O)COc2ccccc2)cc1 (stereo not drawn) | 89 to 92 °C
Cc1cccc(-c2nc(NC(=O)c3ccc(C(=O)O)cc3)sc2-c2ccncn2)c1 | 380 to 381 °C
COC(=O)c1ccc(C(=O)CC(=O)c2ccc3c(c2)C(C)(C)CCC3(C)C)cc1 | 128 °C
CC(=O)OCc1ccc2oc(=O)c(C(=O)Oc3cc([N+](=O)[O-])ccc3[N+](=O)[O-])cc2c1 | 162 to 164 °C
CCn1cc(C(=O)O)c(=O)c2cc(F)c(N3CCC(CNC)C3)nc21 (stereo not drawn) | 251 to 253 °C
COc1ccc2c(c1)C(=O)N(CCN(C)CCN1C(=O)c3cc(OC)ccc3C(C)(C)C1=O)C(=O)C2(C)C | 150 to 151 °C
CCC(O)CN1CCC2(CC1)CSC1=C(O2)c2ccccc2C(=O)C1=O (stereo not drawn) | 180 to 182 °C
CCOC(=O)COc1cccc2c1OCC(Br)C2=O (stereo not drawn) | 92 to 93 °C
O=C(O)c1ccc(COc2ccc3c(c2)CCN(C2CCN(C4CCC4)CC2)C3=O)cc1 | 269 to 270 °C
CCCN(CCCCC12CC3CC(CC(C3)C1)C2)C(=O)NCCCc1ccncc1 | 110 °C
COC(=O)c1ccc(CCc2ccc(OC)cc2)nc1 | 82 °C
COc1cc(C(=O)NN)cc(OC)c1OCCCN(C)C | 95 to 96 °C
C=CCN1C(=O)COc2cc(F)c(N)cc21 | 171 to 172 °C
O=C(c1ccc([N+](=O)[O-])cc1)N1CCCc2ccccc21 | 86 to 88 °C
O=c1c2ccccc2c(-c2ccccc2)cn1CCCCl | 138 °C
COc1cccc(Oc2nccc(-c3c(-c4ccc(F)cc4)ncn3C3CCNCC3)n2)c1 | 117 to 118 °C
Nc1nc(N)c(-c2cc(Cl)cc(Cl)c2Cl)c(CF)n1 | 215 to 217 °C
CCOC(=O)N(C)n1cccc1C(=O)c1ccccc1F | 64 to 66 °C

Reference: a melting point compilation (Tetko et al.; mined from patent text by program, amines drawn as free bases though some values may be those of a salt)
